These results are taken from patent publication US7655756B2 (Johnson & Johnson Pharmaceutical Research & Development, LLC, priority 2005, dated 2010).

One experiment has as its target T1, ERRα (Homo sapiens, UniProt P11474).
T1 sequence (P11474 193-421 limits assumed): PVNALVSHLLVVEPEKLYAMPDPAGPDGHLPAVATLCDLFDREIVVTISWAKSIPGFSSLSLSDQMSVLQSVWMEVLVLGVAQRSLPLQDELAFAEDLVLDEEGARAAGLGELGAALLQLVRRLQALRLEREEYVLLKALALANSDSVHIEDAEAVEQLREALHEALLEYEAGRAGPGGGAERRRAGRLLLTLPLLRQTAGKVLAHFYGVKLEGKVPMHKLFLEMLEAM
In words: ThermoFluor thermal shift assay, ERRα. In kind it is binding. As to conditions: 100 μM test compound; 0.1 mg/mL protein, 25 mM HEPES pH 8.0, 25 μM ANS, 2% DMSO; Tm free protein 54.4 °C; read-out: ΔTm, thermal stabilization of ERRα. A general note: Differential scanning fluorimetry follows unfolding on heating by fluorescence.

The target of a further experiment is ERβ (Homo sapiens, UniProt Q92731). Description: ThermoFluor thermal shift assay, ERβ. In kind it is binding.
ERβ, sequence (Q92731 whole entry, species assumed): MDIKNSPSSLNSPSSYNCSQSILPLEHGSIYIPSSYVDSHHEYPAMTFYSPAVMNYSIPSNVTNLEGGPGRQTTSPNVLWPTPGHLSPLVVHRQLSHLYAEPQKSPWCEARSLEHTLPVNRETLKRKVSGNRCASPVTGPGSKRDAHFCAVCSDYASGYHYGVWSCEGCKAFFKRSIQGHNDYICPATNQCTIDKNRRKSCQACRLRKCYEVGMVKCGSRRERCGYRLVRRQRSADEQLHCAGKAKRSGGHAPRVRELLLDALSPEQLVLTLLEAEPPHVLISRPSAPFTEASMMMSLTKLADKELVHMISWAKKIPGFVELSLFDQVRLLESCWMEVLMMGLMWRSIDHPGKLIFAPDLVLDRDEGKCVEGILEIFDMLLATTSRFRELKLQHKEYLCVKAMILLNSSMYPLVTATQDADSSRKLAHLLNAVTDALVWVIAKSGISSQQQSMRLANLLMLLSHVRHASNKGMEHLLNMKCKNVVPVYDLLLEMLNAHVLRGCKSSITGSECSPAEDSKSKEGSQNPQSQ
A further experiment concerns the target T2, ERRγ (Homo sapiens, UniProt P62508).
T2 construct: 6His; made in house; host or cells: E. coli BL21(DE3)
T2 sequence (P62508 229-458): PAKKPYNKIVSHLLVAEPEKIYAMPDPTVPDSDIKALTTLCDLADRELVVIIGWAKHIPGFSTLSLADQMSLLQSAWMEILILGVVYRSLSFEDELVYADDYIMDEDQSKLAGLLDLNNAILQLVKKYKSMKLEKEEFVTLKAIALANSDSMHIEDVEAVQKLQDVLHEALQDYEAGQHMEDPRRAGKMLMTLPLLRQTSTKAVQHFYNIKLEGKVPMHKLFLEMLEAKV
Description: Isothermal titration calorimetry. In kind it is binding. The note with it: isothermal titration calorimetry. How it is done: The heat of interaction of the ligands with ERRγ molecules was measured by using the Omega titration calorimeter from Microcal Inc. In a typical titration, 1.4 mL of a 20 μM protein solution is titrated with a ligand solution of ˜0.4 mM concentration using a 100 μL syringe by ˜20 injections of 5-6 μL each. This syringe is also used to mix the reactants completely in the sample cell by rotating it at 400 rpm. For each injection, the area under the resulting peak is proportional to the heat of interaction, Q. Once this heat is corrected for the titrant dilution and normalized by the titrant solution concentration it becomes equal to the binding enthalpy, ΔHb, under nonsaturating conditions. The precision of the heat of each injection is about 0.5 μcal. One method of determining ΔHb is to average several intermediate peaks from the different sites. In addition to the binding enthalpies, one can obtain binding affinities, and overall stoichiometries of the complexes. The experimental calorimetric binding isotherm is the dependence of the total heat, Qr, (or dQrldX T) on the total concentration of ligand added, Xr. The above three parameters for each type of site are determined iteratively using the Marquardt algorithms as described previously.
(In ITC the heat of successive injections is recorded.)

In the next experiment the target is T3, ERRβ (Homo sapiens, UniProt O95718).
T3 sequence (O95718 208-432 limits assumed): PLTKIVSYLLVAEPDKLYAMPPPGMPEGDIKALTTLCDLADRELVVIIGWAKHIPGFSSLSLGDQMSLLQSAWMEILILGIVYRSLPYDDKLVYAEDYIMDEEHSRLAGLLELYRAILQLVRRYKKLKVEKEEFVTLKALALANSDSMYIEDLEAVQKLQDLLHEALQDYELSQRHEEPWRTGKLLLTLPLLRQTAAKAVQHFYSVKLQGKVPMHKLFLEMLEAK
In words: ThermoFluor thermal shift assay, ERRβ. In kind it is binding. As to conditions: 100 μM test compound; 0.1 mg/mL protein, 25 mM HEPES pH 8.0; Tm free protein 47.5 °C; read-out: ΔTm, thermal stabilization of ERRβ.

The target of another experiment is T4, ERα (Homo sapiens, UniProt P03372).
T4 sequence (P03372 1-595): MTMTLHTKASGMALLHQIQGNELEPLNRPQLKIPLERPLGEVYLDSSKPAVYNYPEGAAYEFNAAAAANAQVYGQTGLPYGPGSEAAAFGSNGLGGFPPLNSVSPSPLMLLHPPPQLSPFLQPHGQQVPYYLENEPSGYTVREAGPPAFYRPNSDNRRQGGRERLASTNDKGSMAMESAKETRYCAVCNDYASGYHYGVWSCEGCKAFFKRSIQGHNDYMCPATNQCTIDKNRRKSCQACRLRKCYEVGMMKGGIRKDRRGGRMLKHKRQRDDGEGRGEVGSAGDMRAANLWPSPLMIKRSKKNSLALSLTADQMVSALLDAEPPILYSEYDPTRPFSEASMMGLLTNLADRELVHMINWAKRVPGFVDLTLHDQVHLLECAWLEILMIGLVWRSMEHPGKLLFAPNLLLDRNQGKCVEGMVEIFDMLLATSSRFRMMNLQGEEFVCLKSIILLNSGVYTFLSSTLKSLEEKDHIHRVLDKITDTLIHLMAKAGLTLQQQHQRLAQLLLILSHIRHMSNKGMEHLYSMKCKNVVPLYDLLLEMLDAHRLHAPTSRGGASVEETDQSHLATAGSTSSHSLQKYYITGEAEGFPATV
Description: ThermoFluor thermal shift assay, ERα. In kind it is binding.

In another experiment the test system is pBIND-Gal4-ERRγ. In words: Cell based reporter (trans-activation) assay in HEK293E cells. As to conditions: luciferase reporter, Gal4-ERRγ and pACT-SRC2, 24 hours of compound treatment. In general terms: Reporter assays use an easily measured gene product as a stand-in for the process of interest.
For the next experiment, the target named is T5, ERRγ-SRC2 complex (Homo sapiens, UniProt P62508).
T5 construct: made in house; host or cells: E. coli BL21(DE3) (ERRγ LBD)
T5 sequence (P62508 229-458): T2 sequence (P62508 229-458)
Description: TR-FRET co-activator recruitment assay. As to conditions: for Displacement of co-activator peptide from ERRγ (antagonism), in words: 6 nM ERRγ LBD, 6 nM GST-SRC-2 peptide. In kind it is biochemical. How it is done: For FRET measurements, the reaction was buffered in 25 mM Tris pH 8, 2.5 mM Hepes, 20 mM KCl, 1 mM DTT, and 0.05 mg/mL delipidated BSA.
Time-resolved Fluorescence resonance energy transfer (FRET) experiments were performed to examine the functional response of ERRγ ligands.
For FRET measurements, the reaction was buffered in 25 mM Tris pH 8, 2.5 mM Hepes, 20 mM KCl, 1 mM DTT, and 0.05 mg/mL BSA (-lipids). […] Reactions were allowed to reach equilibrium at 25° C. for 4-18 hours before collecting data on the Analyst from LJL Biosystems (Molecular Devices Sunnyvale, Calif.). […] Dose response curves were fitted using a hyperbolic equation and the data reported is the average of three independent experiments.

Description for pBIND-Gal4-ERRγ: A cell based reporter assay was used to determine the functional response of the ERRγ hits. Transfections were performed in HEK293E cells that were maintained in DMEM supplemented in glutamine and 10% FBS. Co-transfections of 4 μg of a luciferase reporter plasmid and 4 μg of each pBIND-Gal4-ERRγ and pACT-SRC2 plasmids per T-75 flask were done using Lipofectamine as per manufacturers instructions. Twenty-four hours post-transfection, the cells were seeded in 96-well plates at density of 50,000 cells per well in assay media (DMEM phenol free, 5% charcoal stripped FBS). […] After 24 hours of compound treatment, cells were lysed and treated with the Promega Dual-Glo system. Firefly Luciferase activity was read using a luminescence plate reader, and data were normalized against Renilla luciferase activity. Data were fitted using subroutines available from GraphPad.

As a reminder, the ΔTm is the change in melting temperature against a reference sample. For the molecule `Cc1cc(O)ccc1Cl` [ClCH3Ph, 4-chloro, 3-methyl phenol], the ΔTm at 100 µM on ERRα was 0.1 °C; on ERβ (pH 8, read-out: ΔTm, thermal stabilization of ERβ) it was 2.4 °C; at ERRβ it was 0.2 °C; at ERα (pH 8, read-out: ΔTm, thermal stabilization of ERα), 0.4 °C. Also, the Kd was 3.05 µM at ERβ and 37.3 µM on ERα (calculated at reference temperature 25 °C from ΔTm of Table II, ΔHu 112 kcal/mol, read-out: Estimated dissociation constant, ERα). Moreover, the “Binding enthalpy ΔHb” value at ERRγ is around -21 kcal/mol. Besides, the “Change in transcriptional activity in trans-activation cellular assay, in words” value in the experiment with pBIND-Gal4-ERRγ is on record as “not able to demonstrate”. In addition, the “Enhancement in the affinity of the receptor for co-activator peptide fragments, in words” value at ERRγ-SRC2 complex is on record as “not able to demonstrate”. Further, the “Displacement of co-activator peptide from ERRγ (antagonism), in words” value on ERRγ-SRC2 complex is on record as “neither ligand displaced co-activator peptide”; at ERRγ-SRC2 complex (listed as ClCh3PH) it was “ineffective”.
